Patent US10899793B2, “Melanocortin ligands and methods of use thereof” (priority 2016, dated 2021)
Square brackets hold non-standard residues; d marks the D form. Peptide text beside a SMILES is read from it. Bip = N[C@@H](Cc1ccc(-c2ccccc2)cc1)C(=O)O; dPhe(4-I) = N[C@H](Cc1ccc(I)cc1)C(=O)O; 2Nal = N[C@@H](Cc1ccc2ccccc2c1)C(=O)O; d2Nal = N[C@H](Cc1ccc2ccccc2c1)C(=O)O; Bta = N[C@@H](Cc1csc2ccccc12)C(=O)O; Tic = O=C(O)[C@@H]1Cc2ccccc2CN1; Nle = CCCC[C@H](N)C(=O)O

Columns and labels:
[1] = target: T1, mMC4R (Mus musculus, UniProt P56450); test: AlphaScreen cAMP agonist assay at mMC4R; details: for activation at 100 µM: read-out: mMC4R Agonist, percent of the NDP-MSH maximal positive control
[2] = target: T2, mMC3R (Mus musculus, UniProt P33033); test: AlphaScreen cAMP agonist assay at mMC3R; details: for mMC3R Agonist, percent of the NDP-MSH maximal positive control: Table 1, @ 100 μM
[3] = target: mMC5R (Mus musculus, UniProt P41149); test: AlphaScreen cAMP agonist assay at mMC5R; details: for activation at 100 µM: read-out: percent of the NDP-MSH maximal positive control, Table 2
[4] = target: mMC1R (Mus musculus, UniProt Q01727); test: AlphaScreen cAMP agonist assay at mMC1R; details: for mMC1R percent of the NDP-MSH maximal positive control: Table 2, @ 100 μM
[5] = target: T1, mMC4R; details: for mMC4R Antagonist pA2 ± SEM: Table 1, Schild analysis, pA2 = -Log(Ki)
[6] = target: T2, mMC3R; details: Table 1; Schild analysis, pA2 = -Log(Ki); Full Agonist = full dose-response, No Activity = no shift in EC50

Chain of mMC5R (P41149 whole entry): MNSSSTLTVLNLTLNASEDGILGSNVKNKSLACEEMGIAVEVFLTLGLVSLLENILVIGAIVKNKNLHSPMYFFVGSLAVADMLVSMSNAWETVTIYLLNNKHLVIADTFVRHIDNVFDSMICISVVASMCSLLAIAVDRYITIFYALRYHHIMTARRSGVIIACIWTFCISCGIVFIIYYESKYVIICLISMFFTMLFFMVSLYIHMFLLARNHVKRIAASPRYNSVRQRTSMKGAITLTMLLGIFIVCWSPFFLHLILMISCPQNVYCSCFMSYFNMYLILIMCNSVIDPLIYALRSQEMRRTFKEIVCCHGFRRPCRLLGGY
T2 sequence (P33033 whole entry): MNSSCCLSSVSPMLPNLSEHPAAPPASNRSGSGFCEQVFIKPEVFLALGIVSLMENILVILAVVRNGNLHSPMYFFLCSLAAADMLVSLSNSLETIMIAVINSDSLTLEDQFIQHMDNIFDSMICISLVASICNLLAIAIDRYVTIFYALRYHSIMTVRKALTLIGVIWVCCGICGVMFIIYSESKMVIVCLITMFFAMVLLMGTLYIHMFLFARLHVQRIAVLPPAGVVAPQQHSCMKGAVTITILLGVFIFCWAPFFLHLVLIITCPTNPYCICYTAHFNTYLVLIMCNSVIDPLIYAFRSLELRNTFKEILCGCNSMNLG
Chain of mMC1R (Q01727 whole entry): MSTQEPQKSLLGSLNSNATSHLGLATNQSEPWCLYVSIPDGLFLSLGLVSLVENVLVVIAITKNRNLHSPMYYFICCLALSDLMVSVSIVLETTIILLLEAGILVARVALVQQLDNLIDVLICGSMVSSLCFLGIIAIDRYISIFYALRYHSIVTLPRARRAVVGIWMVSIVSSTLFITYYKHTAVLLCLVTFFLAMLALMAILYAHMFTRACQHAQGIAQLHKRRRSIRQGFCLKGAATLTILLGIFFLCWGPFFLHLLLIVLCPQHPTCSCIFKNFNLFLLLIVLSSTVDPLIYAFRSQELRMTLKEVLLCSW
T1 sequence (P56450 whole entry): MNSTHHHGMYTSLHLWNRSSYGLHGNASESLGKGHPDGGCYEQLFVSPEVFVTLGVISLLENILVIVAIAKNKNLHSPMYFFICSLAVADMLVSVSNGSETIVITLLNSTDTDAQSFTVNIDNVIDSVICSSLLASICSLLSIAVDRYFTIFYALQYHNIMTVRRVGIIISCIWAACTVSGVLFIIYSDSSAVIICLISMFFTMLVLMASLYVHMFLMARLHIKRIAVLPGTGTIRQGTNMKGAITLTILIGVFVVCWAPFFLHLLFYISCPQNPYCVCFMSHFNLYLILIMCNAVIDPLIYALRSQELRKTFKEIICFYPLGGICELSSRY

CCCC[C@H](NC(=O)[C@H](CO)NC(=O)[C@H](Cc1ccc(O)cc1)NC(=O)[C@H](CO)NC(C)=O)C(=O)N[C@@H](CCC(=O)O)C(=O)N[C@@H](Cc1c[nH]cn1)C(=O)N[C@@H](CCCNC(=N)N)C(=O)N[C@H](Cc1ccccc1)C(=O)N[C@@H](Cc1c[nH]c2ccccc12)C(=O)NCC(=O)N[C@@H](CCCCN)C(=O)N1CCC[C@H]1C(=O)N[C@H](C(N)=O)C(C)C [SKY2-125-3, Ac-Ser-Tyr-Ser-Nle-Glu-His-Arg-DPhe-Trp-Gly-Lys-Pro-Val-NH2] (Ac-SYS[Nle]EHR[dF]WGKPV-NH2)
EC50 [1]: 9500 nM
EC50 [2]: 1800 nM
EC50 [3]: 1600 nM
EC50 [4]: 380 ± 70 nM

CC(=O)N[C@@H](CCCNC(=N)N)C(=O)N[C@@H](CCCNC(=N)N)C(=O)N[C@H](Cc1ccc(I)cc1)C(=O)N[C@@H](Cc1ccc(-c2ccccc2)cc1)C(N)=O [SKY4-48-2, Ac-Arg-Arg-(pI)DPhe-Bip-NH2]
activation at 100 µM [1]: 32%
mMC3R Agonist, percent of the NDP-MSH maximal positive control [2]: 45% @ 100 μM
antagonist pA2 at the mMC4R [5]: 5.8
mMC1R percent of the NDP-MSH maximal positive control [4]: 44% @ 100 μM

CC(=O)N[C@@H](Cc1c[nH]cn1)C(=O)N[C@@H](CCCNC(=N)N)C(=O)N[C@H](Cc1ccc(I)cc1)C(=O)N[C@@H](Cc1ccc(-c2ccccc2)cc1)C(N)=O [SKY4-48-3, Ac-His-Arg-(pI)DPhe-Bip-NH2] (Ac-HR[dPhe(4-I)][Bip]-NH2)
mMC3R Antagonist pA2 ± SEM [6]: No Activity
activation at 100 µM [1]: 43%
mMC3R Agonist, percent of the NDP-MSH maximal positive control [2]: 53% @ 100 μM
mMC4R Antagonist pA2 ± SEM [5]: No Activity

CC(=O)N[C@@H](Cc1ccc(-c2ccccc2)cc1)C(=O)N[C@@H](CCCNC(=N)N)C(=O)N[C@H](Cc1ccc(I)cc1)C(=O)N[C@@H](Cc1ccc(-c2ccccc2)cc1)C(N)=O [SKY4-48-4, Ac-Bip-Arg-(pI)DPhe-Bip-NH2] (Ac-[Bip]R[dPhe(4-I)][Bip]-NH2)
mMC3R Antagonist pA2 ± SEM [6]: No Activity
activation at 100 µM [1]: 24%
mMC4R Antagonist pA2 ± SEM [5]: No Activity

CC(=O)N[C@@H](Cc1csc2ccccc12)C(=O)N[C@@H](CCCNC(=N)N)C(=O)N[C@H](Cc1ccc(I)cc1)C(=O)N[C@@H](Cc1ccc(-c2ccccc2)cc1)C(N)=O [SKY4-48-5, Ac-3Bal-Arg-(pI)DPhe-Bip-NH2] (Ac-[Bta]R[dPhe(4-I)][Bip]-NH2)
mMC3R Antagonist pA2 ± SEM [6]: No Activity
activation at 100 µM [1]: 35%
mMC3R Agonist, percent of the NDP-MSH maximal positive control [2]: 51% @ 100 μM
mMC4R Antagonist pA2 ± SEM [5]: No Activity

CC(=O)N[C@@H](Cc1ccccc1)C(=O)N[C@@H](CCCNC(=N)N)C(=O)N[C@H](Cc1ccc(I)cc1)C(=O)N[C@@H](Cc1ccc(-c2ccccc2)cc1)C(N)=O [SKY4-48-7, Ac-Phe-Arg-(pI)DPhe-Bip-NH2] (Ac-FR[dPhe(4-I)][Bip]-NH2)
mMC3R Antagonist pA2 ± SEM [6]: No Activity
mMC3R Agonist, percent of the NDP-MSH maximal positive control [2]: 30% @ 100 μM
mMC4R Antagonist pA2 ± SEM [5]: No Activity
mMC1R percent of the NDP-MSH maximal positive control [4]: 67% @ 100 μM

CC(=O)N1Cc2ccccc2C[C@H]1C(=O)N[C@@H](CCCNC(=N)N)C(=O)N[C@H](Cc1ccc(I)cc1)C(=O)N[C@@H](Cc1csc2ccccc12)C(N)=O [SKY4-48-14, Ac-Tic-Arg-(pI)DPhe-3Bal-NH2] (Ac-[Tic]R[dPhe(4-I)][Bta]-NH2)
mMC3R Antagonist pA2 ± SEM [6]: Full Agonist
mMC1R percent of the NDP-MSH maximal positive control [4]: 38% @ 100 μM

CC(=O)N[C@H](Cc1ccc2ccccc2c1)C(=O)N[C@@H](CCCNC(=N)N)C(=O)N[C@H](Cc1ccc(I)cc1)C(=O)N[C@@H](Cc1csc2ccccc12)C(N)=O [SKY4-48-17, Ac-DNal(2′)-Arg-(pI)DPhe-3Bal-NH2] (Ac-[d2Nal]R[dPhe(4-I)][Bta]-NH2)
mMC3R Antagonist pA2 ± SEM [6]: Full Agonist
activation at 100 µM [1]: 45%

CC(=O)N[C@@H](Cc1csc2ccccc12)C(=O)N[C@@H](CCCNC(=N)N)C(=O)N[C@H](Cc1ccc(I)cc1)C(=O)N1Cc2ccccc2C[C@H]1C(N)=O [SKY4-48-21, Ac-3Bal-Arg-(pI)DPhe-Tic-NH2] (Ac-[Bta]R[dPhe(4-I)][Tic]-NH2)
mMC3R Antagonist pA2 ± SEM [6]: Full Agonist
activation at 100 µM [1]: 37%

CC(=O)N[C@@H](Cc1ccc2ccccc2c1)C(=O)N[C@@H](CCCNC(=N)N)C(=O)N[C@H](Cc1ccc(I)cc1)C(=O)N1Cc2ccccc2C[C@H]1C(N)=O [SKY4-48-24, Ac-Nal(2′)-Arg-(pI)DPhe-Tic-NH2] (Ac-[2Nal]R[dPhe(4-I)][Tic]-NH2)
mMC3R Antagonist pA2 ± SEM [6]: Full Agonist
activation at 100 µM [1]: 33%

CC(=O)N[C@@H](Cc1c[nH]cn1)C(=O)N[C@@H](CCCNC(=N)N)C(=O)N[C@H](Cc1ccc(I)cc1)C(=O)N[C@@H](Cc1ccc2ccccc2c1)C(N)=O [SKY4-48-35, Ac-His-Arg-(pI)DPhe-Nal(2′)-NH2] (Ac-HR[dPhe(4-I)][2Nal]-NH2)
activation at 100 µM [1]: 35%
mMC3R Agonist, percent of the NDP-MSH maximal positive control [2]: 57% @ 100 μM

CC(=O)N[C@@H](Cc1ccc(-c2ccccc2)cc1)C(=O)N[C@@H](CCCNC(=N)N)C(=O)N[C@H](Cc1ccc(I)cc1)C(=O)N[C@@H](Cc1ccc2ccccc2c1)C(N)=O [SKY4-48-36, Ac-Bip-Arg-(pI)DPhe-Nal(2′)-NH2] (Ac-[Bip]R[dPhe(4-I)][2Nal]-NH2)
mMC3R Antagonist pA2 ± SEM [6]: No Activity
activation at 100 µM [3]: 21%
mMC4R Antagonist pA2 ± SEM [5]: No Activity
mMC1R percent of the NDP-MSH maximal positive control [4]: 23% @ 100 μM

CC(=O)N1Cc2ccccc2C[C@H]1C(=O)N[C@@H](CCCNC(=N)N)C(=O)N[C@H](Cc1ccc(I)cc1)C(=O)N[C@@H](Cc1ccc2ccccc2c1)C(N)=O [SKY4-48-38, Ac-Tic-Arg-(pI)DPhe-Nal(2′)-NH2] (Ac-[Tic]R[dPhe(4-I)][2Nal]-NH2)
mMC3R Antagonist pA2 ± SEM [6]: No Activity
activation at 100 µM [3]: 48%
mMC1R percent of the NDP-MSH maximal positive control [4]: 66% @ 100 μM

CC(=O)N[C@@H](Cc1c[nH]cn1)C(=O)N[C@@H](CCCNC(=N)N)C(=O)N[C@H](Cc1ccc(I)cc1)C(=O)N[C@H](Cc1ccc2ccccc2c1)C(N)=O [SKY4-48-43, Ac-His-Arg-(pI)DPhe-DNal(2′)-NH2] (Ac-HR[dPhe(4-I)][d2Nal]-NH2)
mMC3R Antagonist pA2 ± SEM [6]: Full Agonist
activation at 100 µM [1]: 50%
activation at 100 µM [3]: 47%

CC(=O)N1Cc2ccccc2C[C@H]1C(=O)N[C@@H](CCCNC(=N)N)C(=O)N[C@H](Cc1ccc(I)cc1)C(=O)N[C@H](Cc1ccc2ccccc2c1)C(N)=O [SKY4-48-46, Ac-Tic-Arg-(pI)DPhe-DNal(2′)-NH2] (Ac-[Tic]R[dPhe(4-I)][d2Nal]-NH2)
mMC3R Antagonist pA2 ± SEM [6]: No Activity
activation at 100 µM [1]: 33%
mMC3R Agonist, percent of the NDP-MSH maximal positive control [2]: 42% @ 100 μM
activation at 100 µM [3]: 74%
mMC4R Antagonist pA2 ± SEM [5]: No Activity

CC(=O)N[C@@H](Cc1ccc2ccccc2c1)C(=O)N[C@@H](CCCNC(=N)N)C(=O)N[C@H](Cc1ccc(I)cc1)C(=O)N[C@H](Cc1ccc2ccccc2c1)C(N)=O [SKY4-48-48, Ac-Nal(2′)-Arg-(pI)DPhe-DNal(2′)-NH2] (Ac-[2Nal]R[dPhe(4-I)][d2Nal]-NH2)
mMC3R Antagonist pA2 ± SEM [6]: No Activity
mMC3R Agonist, percent of the NDP-MSH maximal positive control [2]: 31% @ 100 μM
activation at 100 µM [3]: 40%
mMC4R Antagonist pA2 ± SEM [5]: No Activity
mMC1R percent of the NDP-MSH maximal positive control [4]: 53% @ 100 μM

CC(=O)N[C@H](Cc1ccc2ccccc2c1)C(=O)N[C@@H](CCCNC(=N)N)C(=O)N[C@H](Cc1ccc(I)cc1)C(=O)N[C@H](Cc1ccc2ccccc2c1)C(N)=O [SKY4-48-49, Ac-DNal(2′)-Arg-(pI)DPhe-DNal(2′)-NH2] (Ac-[d2Nal]R[dPhe(4-I)][d2Nal]-NH2)
activation at 100 µM [1]: 37%
mMC3R Agonist, percent of the NDP-MSH maximal positive control [2]: 40% @ 100 μM
activation at 100 µM [3]: 43%

CC(=O)N1Cc2ccccc2C[C@H]1C(=O)N[C@@H](CCCNC(=N)N)C(=O)N[C@H](Cc1ccc(I)cc1)C(=O)N[C@@H](Cc1ccc(-c2ccccc2)cc1)C(N)=O [SKY5-146-1, Ac-Tic-Arg-(pI)DPhe-Bip-NH2] (Ac-[Tic]R[dPhe(4-I)][Bip]-NH2)
mMC3R Antagonist pA2 ± SEM [6]: No Activity
mMC4R Antagonist pA2 ± SEM [5]: No Activity
mMC1R percent of the NDP-MSH maximal positive control [4]: 39% @ 100 μM

CC(=O)N[C@H](Cc1ccc2ccccc2c1)C(=O)N[C@@H](CCCNC(=N)N)C(=O)N[C@H](Cc1ccc(I)cc1)C(=O)N[C@@H](Cc1ccc(-c2ccccc2)cc1)C(N)=O [SKY5-146-2, Ac-DNal(2′)-Arg-(pI)DPhe-Bip-NH2] (Ac-[d2Nal]R[dPhe(4-I)][Bip]-NH2)
activation at 100 µM [1]: 42%
mMC3R Agonist, percent of the NDP-MSH maximal positive control [2]: 30% @ 100 μM
antagonist pA2 at the mMC4R [5]: 6.6

CC(=O)N[C@H](Cc1ccc2ccccc2c1)C(=O)N[C@@H](CCCNC(=N)N)C(=O)N[C@H](Cc1ccc(I)cc1)C(=O)N[C@@H](Cc1ccc2ccccc2c1)C(N)=O [SKY5-146-5, Ac-DNal(2′)-Arg-(pI)DPhe-Nal(2′)-NH2] (Ac-[d2Nal]R[dPhe(4-I)][2Nal]-NH2)
activation at 100 µM [1]: 39%
mMC3R Agonist, percent of the NDP-MSH maximal positive control [2]: 43% @ 100 μM
activation at 100 µM [3]: 40%

CC(=O)N1Cc2ccccc2C[C@H]1C(=O)N[C@@H](CCCNC(=N)N)C(=O)N[C@H](Cc1ccc(I)cc1)C(=O)N1Cc2ccccc2C[C@H]1C(N)=O [SKY6-24-1, Ac-Tic-Arg-(pI)DPhe-Tic-NH2] (Ac-[Tic]R[dPhe(4-I)][Tic]-NH2)
mMC3R Antagonist pA2 ± SEM [6]: Full Agonist
activation at 100 µM [1]: 36%

Ac-SYSMEHRFWGKPV-NH2 [SKY2-125-5]
EC50 [1]: 44000 nM
EC50 [2]: 5800 nM
fold decreased potency at the mMC3R relative to α-MSH ([2]; Arg-Phe reverse analog vs parent): 45,000 fold
EC50 [3]: 2600 nM
EC50 [4]: 3000 nM
